Viability data for eight molecules are collected here from patent publication US10105357B2, “Indication of antibiotic drugs for preparation of cancer inhibition pharmaceutical composition” (LAUNX BIOMEDICAL CO., LTD., priority 2014, dated 2018).

Assay [1] has as its system HepG2 (Hepatocellular Carcinoma). The assay is described as follows: Cell viability analysis, hepatic cancer HepG2. In kind it is cell-based, human. The conditions noted are these: Homo sapiens.
The subject of assay [2] is HCT116 (p53+) (Colorectal Carcinoma). The assay is described as follows: cells. The conditions noted are these: Homo sapiens, HCT-116, 72 h, read-out: cell viability (survival rate), HCT116.
The subject of assay [3] is LoVo (Colorectal Adenocarcinoma). The assay is described as follows: Cell viability analysis, colon cancer LoVo. In kind it is cell-based, human. The conditions noted are these: Homo sapiens, LoVo.
In assay [4] the test system is HL-60 (Acute Promyelocytic Leukemia). The assay is described as follows: Cell viability analysis, leukemia HL-60. The conditions noted are these: Homo sapiens. In kind it is cell-based, human.
In assay [5] the test system is MKN-45 (Gastric Adenocarcinoma). In words: Cell viability analysis, gastric cancer MKN-45. In kind it is cell-based, human. The conditions noted are these: Homo sapiens.
The test system of assay [6] is AGS (Gastric Adenocarcinoma). In words: Cell viability analysis, gastric cancer AGS. In kind it is cell-based, human. The conditions noted are these: Homo sapiens.
The subject of assay [7] is A375 (Amelanotic Melanoma). The assay is described as follows: Cell viability analysis, skin cancer A375. In kind it is cell-based, human. The conditions noted are these: Homo sapiens.
Assay [8] relates to HeLa (Cervix Adenocarcinoma). In words: Cell viability analysis, cervical cancer HeLa. In kind it is cell-based, human. The conditions noted are these: Homo sapiens, HeLa.
The subject of assay [9] is PC3 (p53−) (Prostate Adenocarcinoma). In words: Cell viability analysis, prostate cancer PC3. In kind it is cell-based, human. The conditions noted are these: Homo sapiens.
The subject of assay [10] is HI650 (Lung Adenocarcinoma). In words: Cell viability analysis, lung cancer HI650. In kind it is cell-based, human. The conditions noted are these: Homo sapiens.
In assay [11] the test system is A549 (Lung Adenocarcinoma). The assay is described as follows: Cell viability analysis, lung cancer A549. In kind it is cell-based, human. The conditions noted are these: Homo sapiens.
The test system of assay [12] is TSGH-8301 (Urinary Bladder Carcinoma). The assay is described as follows: Cell viability analysis, bladder cancer TSGH-8301. In kind it is cell-based, human. The conditions noted are these: Homo sapiens.
The subject of assay [13] is MCF7 (Mammary Gland, Adenocarcinoma). In words: Cell viability analysis, breast cancer MCF7. In kind it is cell-based, human. The conditions noted are these: Homo sapiens.
Setting [14] is: HepG2, 72 h, drug 10 μM, 72 hours, WST-1, OD450 nm, read-out: cell viability (survival rate), HepG2.
[15] abbreviates: 72 h, read-out: cell viability (survival rate), LoVo, drug 10 μM, 72 hours, WST-1, OD450 nm.
The mark [16] stands for this setting: HL-60, 72 h, drug 10 μM, 72 hours, WST-1, OD450 nm, read-out: cell viability (survival rate), HL-60.
Where [17] appears, read: MKN-45, 72 h, drug 10 μM, 72 hours, WST-1, OD450 nm, read-out: cell viability (survival rate), MKN-45.
Where [18] appears, read: 72 h, drug 10 μM, 72 hours, WST-1, OD450 nm, read-out: cell viability (survival rate), AGS.
Setting [19] is: A-375, 72 h, drug 10 μM, 72 hours, WST-1, OD450 nm, read-out: cell viability (survival rate), A375.
Where [20] appears, read: 72 h, drug 10 μM, 72 hours, WST-1, OD450 nm, read-out: cell viability (survival rate), HeLa.
Where [21] appears, read: 72 h, drug 10 μM, 72 hours, WST-1, OD450 nm, read-out: cell viability (survival rate), PC3.
The mark [22] stands for this setting: NCI-H1650, 72 h, drug 10 μM, 72 hours, WST-1, OD450 nm, read-out: cell viability (survival rate), H1650.
Setting [23] is: A549, 72 h, drug 10 μM, 72 hours, WST-1, OD450 nm, read-out: cell viability (survival rate), A549.
Where [24] appears, read: HepG2, 72 h, read-out: cell viability (survival rate), HepG2, drug 10 μM, 72 hours, WST-1, OD450 nm.
Setting [25] is: 72 h, read-out: cell viability (survival rate), TSGH, drug 10 μM, 72 hours, WST-1, OD450 nm.
Setting [26] is: HL-60, 72 h, read-out: cell viability (survival rate), HL-60, drug 10 μM, 72 hours, WST-1, OD450 nm.
The mark [27] stands for this setting: MKN-45, 72 h, read-out: cell viability (survival rate), MKN-45, drug 10 μM, 72 hours, WST-1, OD450 nm.
[28] abbreviates: 72 h, read-out: cell viability (survival rate), AGS, drug 10 μM, 72 hours, WST-1, OD450 nm.
[29] abbreviates: MCF7, 72 h, read-out: cell viability (survival rate), MCF7, drug 10 μM, 72 hours, WST-1, OD450 nm.
Where [30] appears, read: A-375, 72 h, read-out: cell viability (survival rate), A375, drug 10 μM, 72 hours, WST-1, OD450 nm.
Where [31] appears, read: 72 h, read-out: cell viability (survival rate), HeLa, drug 10 μM, 72 hours, WST-1, OD450 nm.
Setting [32] is: 72 h, read-out: cell viability (survival rate), PC3, drug 10 μM, 72 hours, WST-1, OD450 nm.
Setting [33] is: NCI-H1650, 72 h, read-out: cell viability (survival rate), H1650, drug 10 μM, 72 hours, WST-1, OD450 nm.
Setting [34] is: A549, 72 h, read-out: cell viability (survival rate), A549, drug 10 μM, 72 hours, WST-1, OD450 nm.
Where [35] appears, read: HepG2, drug 10 μM, 72 hours, WST-1, OD450 nm, read-out: cell viability (survival rate), HepG2.
Setting [36] is: drug 10 μM, 72 hours, WST-1, OD450 nm, read-out: cell viability (survival rate), LoVo.
Where [37] appears, read: drug 10 μM, 72 hours, WST-1, OD450 nm, read-out: cell viability (survival rate), TSGH.
Where [38] appears, read: HL-60, drug 10 μM, 72 hours, WST-1, OD450 nm, read-out: cell viability (survival rate), HL-60.
Setting [39] is: drug 10 μM, 72 hours, WST-1, OD450 nm, read-out: cell viability (survival rate), AGS.
[40] abbreviates: MCF7, drug 10 μM, 72 hours, WST-1, OD450 nm, read-out: cell viability (survival rate), MCF7.
Setting [41] is: A-375, drug 10 μM, 72 hours, WST-1, OD450 nm, read-out: cell viability (survival rate), A375.
Where [42] appears, read: drug 10 μM, 72 hours, WST-1, OD450 nm, read-out: cell viability (survival rate), HeLa.
Setting [43] is: drug 10 μM, 72 hours, WST-1, OD450 nm, read-out: cell viability (survival rate), PC3.
The mark [44] stands for this setting: NCI-H1650, drug 10 μM, 72 hours, WST-1, OD450 nm, read-out: cell viability (survival rate), H1650.
Where [45] appears, read: A549, drug 10 μM, 72 hours, WST-1, OD450 nm, read-out: cell viability (survival rate), A549.

Counter-ions that a name gives are not always drawn. Like-named read-outs stand apart in the source and are kept apart here.

As to `CCCCCCCCCCCCCCCCO` [1-Hexadecanol], the viability at 10 µM in assay [1] (setting [14]) was determined as 96%; in [2] it was 69.8%; in [3] (setting [15]), 98.8%; in assay [4] (setting [16]), 92.2%; in assay [5] (setting [17]), 85.5%; in assay [6] (setting [18]), 89.4%. The viability at 10 µM came out at 113% in [7] (setting [19]); 91.3% in assay [8] (setting [20]); 91.9% in assay [9] (setting [21]); 84.3% in assay [10] (setting [22]); 84% in [11] (setting [23]).
On to `Nc1c2ccccc2nc2ccccc12` [9-Aminoacridine], for which the viability at 10 µM in assay [1] (setting [24]) was found to be 63.5%; in [2] it was 70.5%; in assay [3] (setting [15]), 58.5%; in assay [12] (setting [25]), 34.6%; in [4] (setting [26]), 28.8%; in assay [5] (setting [27]), 63.1%. Further, the viability at 10 µM in assay [6] (setting [28]) worked out at 42.8%; in [13] (setting [29]), 34.1%; in assay [7] (setting [30]), 36.4%; in assay [8] (setting [31]) it was 43.6%; in assay [9] (setting [32]) it was 38.7%; in assay [10] (setting [33]), 56.9%. In addition, the viability at 10 µM in [11] (setting [34]) came out at 25.8%.
`CCCCC(CC)CNC(=N)NC(=N)NCCCCCCNC(=N)NC(=N)NCC(CC)CCCC` (centres unmarked) [Alexidine HCl]: the viability at 10 µM is 65.9% in [1] (setting [14]); 65.8% in assay [2]; 54.6% in assay [3] (setting [15]); 36.6% in assay [12] (72 h, drug 10 μM, 72 hours, WST-1, OD450 nm, read-out: cell viability (survival rate), TSGH); 29.4% in assay [4] (setting [16]); 64.4% in assay [5] (setting [17]). Besides, the viability at 10 µM in assay [6] (setting [18]) was 45.1%; in assay [13] (MCF7, 72 h, drug 10 μM, 72 hours, WST-1, OD450 nm, read-out: cell viability (survival rate), MCF7), 34.8%; in assay [7] (setting [19]), 38.1%; in assay [8] (setting [20]) it was 44.9%; in [9] (setting [21]) it was 38%; in assay [10] (setting [22]) it was 57.5%. In addition, the viability at 10 µM in [11] (setting [23]) amounted to 25.3%.
With `CCC1(C)CC(=O)NC(=O)C1` [Bemegride], the viability at 10 µM came out at 90.7% in [1] (setting [35]); 47.7% in [2]; 88.5% in assay [3] (setting [36]); 93.3% in assay [12] (setting [37]); 125% in assay [4] (setting [38]); 99.7% in [5] (MKN-45, drug 10 μM, 72 hours, WST-1, OD450 nm, read-out: cell viability (survival rate), MKN-45). Besides, the viability at 10 µM amounted to 62% in [6] (setting [39]); 123% in [13] (setting [40]); 62.7% in [7] (setting [41]); 62.7% in assay [8] (setting [42]); 113% in assay [9] (setting [43]); 69.9% in assay [10] (setting [44]). For the same molecule, the viability at 10 µM in assay [11] (setting [45]) came to 60.2%.
Turning to `Cc1cc(O)ccc1Cl` [Chlorocresol], the viability at 10 µM in [1] (HepG2, 72 h, read-out: cell viability (survival rate), HepG2) came out at 98.6%; in assay [2], 61.7%; in assay [3] (72 h, read-out: cell viability (survival rate), LoVo), 62%; in assay [12] (72 h, read-out: cell viability (survival rate), TSGH), 113%; in assay [4] (HL-60, 72 h, read-out: cell viability (survival rate), HL-60), 96.4%; in [6] (72 h, read-out: cell viability (survival rate), AGS), 103%. The viability at 10 µM in [13] (MCF7, 72 h, read-out: cell viability (survival rate), MCF7) worked out at 64.2%; in assay [7] (A-375, 72 h, read-out: cell viability (survival rate), A375), 65.4%; in assay [8] (72 h, read-out: cell viability (survival rate), HeLa), 96.3%; in [9] (72 h, read-out: cell viability (survival rate), PC3), 130%; in assay [10] (NCI-H1650, 72 h, read-out: cell viability (survival rate), H1650) it was 91.5%; in assay [11] (A549, 72 h, read-out: cell viability (survival rate), A549), 80.1%.
As for `COC(=O)C1=CO[C@@H](O)[C@@H]2C(CO)=CC[C@H]12` [Genipin], the viability at 10 µM was 87.1% in [1] (setting [24]); 82.7% in assay [2]; 67.7% in assay [12] (setting [25]); 117% in assay [4] (setting [26]); 54.1% in assay [5] (setting [27]); 49.6% in assay [6] (setting [28]). Besides, the viability at 10 µM was 71.7% in assay [13] (setting [29]); 78% in assay [7] (setting [30]); 74.5% in assay [8] (setting [31]); 71.6% in assay [9] (setting [32]); 69.5% in [10] (setting [33]); 61.8% in [11] (setting [34]).
Take `CNC[C@H](O)[C@@H](O)[C@H](O)[C@H](O)CO` [Meglumine]: the viability at 10 µM in assay [1] (setting [35]) stood at 90.8%; in assay [2], 92.7%; in assay [3] (setting [36]) it was 78.4%; in assay [12] (setting [37]), 109%; in [4] (setting [38]), 114%; in assay [6] (setting [39]), 95%. Further, the viability at 10 µM in [13] (setting [40]) was 97%; in [7] (setting [41]) it was 78.2%; in [8] (setting [42]), 74.1%; in assay [9] (setting [43]), 76.8%; in [10] (setting [44]), 62%; in assay [11] (setting [45]), 108%.
With `O=c1cc[nH]c(=O)[nH]1` [Uracil], the viability at 10 µM in assay [1] (setting [24]) turned out to be 100%; in assay [2], 94.3%; in assay [3] (setting [15]) it was 70.2%; in [12] (setting [25]), 104%; in assay [4] (setting [26]), 98.7%; in [6] (setting [28]), 82.9%. The viability at 10 µM is 103% in assay [13] (setting [29]); 98.2% in assay [7] (setting [30]); 107% in assay [8] (setting [31]); 163% in assay [9] (setting [32]); 91.8% in [10] (setting [33]); 80.5% in [11] (setting [34]).
